Data reported in patent US20260077051A1, “COMPOUNDS FOR THE DEGRADATION OF EGFR KINASE” (BeOne Medicines I GmbH, priority 2023, published 2026).

Assays:
[1] = molecular target: T1, EGFR L858R (BaF3-L858R cells) (Homo sapiens, UniProt P00533, L858R); assay: EGFR degradation in BaF3-L858R cells (HTRF assay); assay type: cell-based; details: 16 h treatment; for DC50: IC50(DC50) of EGFR degradation; for Dmax: maximum percentage of inhibition (degradation)
T1 construct: host or cells: BaF3
Procedure: BaF3-L858R (abbv. L858R) cell were purchased from Kangyuan Bochuang Biotechnology (Beijing) Co., Ltd.
(§1) H1975-#8 and BaF3-L858R cells are treated with compounds diluted in 0.1% DMSO cell culture medium on day 2, incubate for 16 h, 37° C., 5% CO2. the final concentration of compounds in all assay is start with 10 uM, 5-fold dilution, total 8 doses were included.
(§2) After 16 h treatment, for H1975-#8 cells, add 100 ul HTRF 1× lysis buffer to each well; for BaF3-L858R cells, add 20 μl 4× lysis buffer to each well; seal the plate and incubate 1 hour at room temperature on a plate shaker; Once the cells are lysed, 16 μL of cell lysate are transferred to a PE 384-well HTRF detection plate; 4 μL of pre-mixed HTRF antibodies are added to each well; Cover the plate with a plate sealer, spin 1000 rpm for 1 min, Incubate overnight at room temperature; Read on BMG PheraStar with HTRF protocol (337 nm-665 nm-620 nm).
(§3) The inhibition (degradation) percentage of the compound was calculated by the following equation:
(§4) High control=Cell group with added DMSO and without compound, indicating microplate readings without EGFR degradation;
(§5) Dmax is the maximum percentage of inhibition (degradation).
(§6) The IC50(DC50) value of a compound can be obtained by fitting the following equation
(§7) Wherein, X and Y are known values, and IC50, Hillslope, Top and Bottom are the parameters obtained by fitting with software. Y is the inhibition percentage (calculated from the equation), X is the concentration of the compound; IC50 is the concentration of the compound when the 50% inhibition is reached. The smaller the IC50 value is, the stronger the inhibitory ability of the compound is. Vice versa, the higher the IC50 value is, the weaker the ability the inhibitory ability of the compound is; Hillslope represents the slope of the fitted curve, generally around 1*; Bottom represents the minimum value of the curve obtained by data fitting, which is generally 0%±20%; Top represents the maximum value of the curve obtained by data fitting, which is generally 100%±20%. The experimental data were fitted by calculating and analyzing with Dotmatics data analysis software.

[2] = molecular target: T2, EGFR-L858R/C797S (H1975-clone #8 cells) (Homo sapiens, UniProt P00533, C797S/L858R); assay: EGFR degradation in H1975-clone#8 (L858R/C797S) cells (HTRF assay); assay type: cell-based; details: 16 h treatment; for DC50: IC50(DC50) of EGFR degradation; for Dmax: maximum percentage of inhibition (degradation)
T2 construct: expressed in transfected cells; host or cells: H1975 (lentiviral transduction, endogenous EGFR knocked out, single clone #8)
Procedure: H1975-clone #8 (L858R/C797S): EGFR-L858R/C797S were stably expressed in H1975 cell lines by lentivirus-mediated over-expression, respectively. The EGFR over-expressed cells then underwent knockout, in which the EGFR targeting sgRNA was designed to only target the endogenous EGFR copies and preserve the exogenous EGFR copies. Followed by the knockout, the edited H1975 cells were seeded in 96 well plates at the concentration of […], cultured for about 2 weeks to allow single clones formation. The formed clones were screened by DNA sequencing and whole exon sequencing analysis for the desired edition. H1975-clone #8 were finally confirmed as homozygous L858R/C797S EGFR clones.
as §1, §2, §3, §4, §5, §6, §7

T1 sequence (P00533 25-1210 L858R): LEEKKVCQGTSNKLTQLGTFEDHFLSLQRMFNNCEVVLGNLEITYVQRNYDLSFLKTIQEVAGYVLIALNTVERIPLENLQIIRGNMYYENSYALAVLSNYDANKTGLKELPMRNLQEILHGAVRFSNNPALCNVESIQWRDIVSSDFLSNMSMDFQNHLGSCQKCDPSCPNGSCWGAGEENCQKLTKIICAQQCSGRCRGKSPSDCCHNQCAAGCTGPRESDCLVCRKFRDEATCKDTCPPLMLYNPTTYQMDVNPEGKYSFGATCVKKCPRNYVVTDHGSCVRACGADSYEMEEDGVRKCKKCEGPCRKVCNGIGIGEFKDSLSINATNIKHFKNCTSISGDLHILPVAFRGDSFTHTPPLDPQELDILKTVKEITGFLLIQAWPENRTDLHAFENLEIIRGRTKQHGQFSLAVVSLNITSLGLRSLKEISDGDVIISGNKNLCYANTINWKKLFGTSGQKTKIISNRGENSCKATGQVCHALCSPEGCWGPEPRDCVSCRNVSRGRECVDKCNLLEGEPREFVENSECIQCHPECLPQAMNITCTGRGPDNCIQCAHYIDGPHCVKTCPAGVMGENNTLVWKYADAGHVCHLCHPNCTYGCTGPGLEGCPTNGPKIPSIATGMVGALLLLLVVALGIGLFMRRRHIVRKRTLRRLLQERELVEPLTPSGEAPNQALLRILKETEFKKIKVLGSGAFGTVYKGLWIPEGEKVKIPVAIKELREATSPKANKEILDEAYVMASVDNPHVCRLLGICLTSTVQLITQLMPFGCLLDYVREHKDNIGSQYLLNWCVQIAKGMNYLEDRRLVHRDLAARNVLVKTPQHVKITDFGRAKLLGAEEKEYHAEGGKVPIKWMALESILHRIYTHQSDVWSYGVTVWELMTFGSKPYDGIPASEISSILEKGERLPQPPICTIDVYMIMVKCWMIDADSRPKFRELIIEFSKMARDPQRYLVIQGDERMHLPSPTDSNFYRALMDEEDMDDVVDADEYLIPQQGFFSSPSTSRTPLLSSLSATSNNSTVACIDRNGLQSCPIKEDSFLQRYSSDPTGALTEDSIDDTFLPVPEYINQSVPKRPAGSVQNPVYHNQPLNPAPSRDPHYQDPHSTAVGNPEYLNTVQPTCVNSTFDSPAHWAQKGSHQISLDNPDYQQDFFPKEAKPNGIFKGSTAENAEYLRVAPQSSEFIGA
T2 sequence (P00533 25-1210 C797S/L858R): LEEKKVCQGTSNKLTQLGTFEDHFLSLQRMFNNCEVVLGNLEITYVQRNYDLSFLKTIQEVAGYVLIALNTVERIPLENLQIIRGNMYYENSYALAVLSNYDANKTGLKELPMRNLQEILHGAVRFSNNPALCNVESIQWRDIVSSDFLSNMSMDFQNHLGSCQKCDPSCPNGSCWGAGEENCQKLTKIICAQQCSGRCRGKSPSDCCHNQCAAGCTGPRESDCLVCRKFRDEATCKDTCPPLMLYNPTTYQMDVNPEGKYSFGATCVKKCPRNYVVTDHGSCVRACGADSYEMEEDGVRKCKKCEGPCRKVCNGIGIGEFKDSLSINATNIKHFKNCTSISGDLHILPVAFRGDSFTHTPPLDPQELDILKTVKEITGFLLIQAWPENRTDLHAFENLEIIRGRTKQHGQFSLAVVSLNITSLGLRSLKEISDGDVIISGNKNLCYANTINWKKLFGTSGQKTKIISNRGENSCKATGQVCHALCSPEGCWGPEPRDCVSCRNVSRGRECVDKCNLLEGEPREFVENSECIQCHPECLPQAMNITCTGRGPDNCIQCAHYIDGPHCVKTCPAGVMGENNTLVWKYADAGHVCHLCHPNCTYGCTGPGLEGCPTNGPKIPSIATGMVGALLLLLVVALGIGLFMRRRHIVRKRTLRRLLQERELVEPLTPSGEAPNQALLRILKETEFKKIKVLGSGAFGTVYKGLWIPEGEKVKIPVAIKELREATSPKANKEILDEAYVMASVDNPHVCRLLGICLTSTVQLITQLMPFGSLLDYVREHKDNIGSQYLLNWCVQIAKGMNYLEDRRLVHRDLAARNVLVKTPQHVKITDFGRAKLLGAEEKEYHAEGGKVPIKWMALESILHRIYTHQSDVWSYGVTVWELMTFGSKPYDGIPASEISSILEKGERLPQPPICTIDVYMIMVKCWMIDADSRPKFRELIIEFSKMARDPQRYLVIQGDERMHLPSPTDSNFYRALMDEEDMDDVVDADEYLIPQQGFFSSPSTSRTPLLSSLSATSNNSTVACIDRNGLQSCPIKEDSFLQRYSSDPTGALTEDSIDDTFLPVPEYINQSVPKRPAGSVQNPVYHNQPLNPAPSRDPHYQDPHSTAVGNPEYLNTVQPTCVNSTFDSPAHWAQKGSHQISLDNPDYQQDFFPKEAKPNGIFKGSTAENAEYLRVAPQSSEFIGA

SMILES | DC50 [1] [nM] | Dmax [1] [%] | DC50 [2] [nM] | Dmax [2] [%]
Cc1cc2cc(n1)-c1cnn(C)c1OCC[C@H]1C[C@@H]1CN1/C(=N/C2=O)Nc2ccc(NC3CN(C4CCN(c5cnc(C6CCC(=O)NC6=O)cc5C)CC4)C3)cc21 (some centres unmarked) [Example 1, 3-(5-(4-(3-(((7^1S,7^2R,E)-1^1,2^6-dimethyl-3-oxo-5^2,5^3-dihydro-1^1H,5^1H-10-oxa-4-aza-5 (2,1)-benzo[d]imidazola-2 (2,4)-pyridina-1 (4,5)-pyrazola-7 (1,2)-cyclopropanacyclodecaphane-5^6-yl)amino)azetidin-1-yl)piperidin-1-yl)-4-methylpyridin-2-yl)piperidine-2,6-dione] | 15.7 | 68.4 | – | –
Cc1cc2cc(n1)-c1cnn(C)c1OCC[C@H]1C[C@@H]1CN1/C(=N/C2=O)Nc2ccc(N3CCN(C4CCN(c5ccc(C6CCC(=O)NC6=O)nc5C)CC4)C[C@@H]3C)cc21 (stereo partly drawn) [Example 3, 3-(5-(4-((S)-4-((7^1S,7^2R,E)-1^1,2^6-dimethyl-3-oxo-5^2,5^3-dihydro-1^1H,5^1H-10-oxa-4-aza-5 (2,1)-benzo[d]imidazola-2 (2,4)-pyridina-1 (4,5)-pyrazola-7 (1,2)-cyclopropanacyclodecaphane-5-yl)-3-methylpiperazin-1-yl)piperidin-1-yl)-6-methylpyridin-2-yl)piperidine-2,6-dione] | 11.6 | 85.5 | 3.1 | 65.2
Cc1cc2cc(n1)-c1cnn(C)c1OCC[C@H]1C[C@@H]1CN1/C(=N/C2=O)Nc2ccc(N3CCC(N4CC5CCC(C4)N5c4ccc(C5CCC(=O)NC5=O)nc4C)CC3)cc21 (some centres unmarked) [Example 4, 3-(5-(3-(1-((7^1S,7^2R,E)-1^1,2^6-dimethyl-3-oxo-5^2,5^3-dihydro-1^1H,5^1H-10-oxa-4-aza-5 (2,1)-benzo[d]imidazola-2 (2,4)-pyridina-1 (4,5)-pyrazola-7 (1,2)-cyclopropanacyclodecaphane-5^6-yl)piperidin-4-yl)-3,8-diazabicyclo[3.2.1]octan-8-yl)-6-methylpyridin-2-yl)piperidine-2,6-dione] | 52.5 | 63.6 | – | –
Cc1cc2cc(n1)-c1cnn(C)c1OCC[C@H]1C[C@@H]1CN1/C(=N/C2=O)Nc2ccc(N3CCC(N4CC5CCC4CN5c4ccc(C5CCC(=O)NC5=O)nc4C)CC3)cc21 (some centres unmarked) [Example 5, 3-(5-(5-(1-((7^1S,7^2R,E)-1^1,2^6-dimethyl-3-oxo-5^2,5^3-dihydro-1^1H,5^1H-10-oxa-4-aza-5 (2,1)-benzo[d]imidazola-2 (2,4)-pyridina-1 (4,5)-pyrazola-7 (1,2)-cyclopropanacyclodecaphane-5^6-yl)piperidin-4-yl)-2,5-diazabicyclo[2.2.2]octan-2-yl)-6-methylpyridin-2-yl)piperidine-2,6-dione] | 72.2 | 70.3 | – | –
Cc1cc2cc(n1)-c1cnn(C)c1OCC[C@H]1C[C@@H]1CN1/C(=N/C2=O)Nc2ccc(N3CC4CCC3CN4C3CCN(c4ccc(C5CCC(=O)NC5=O)nc4C)CC3)cc21 (some centres unmarked) [Example 6, 3-(5-(4-(5-((7^1S,7^2R,E)-1^1,2^6-dimethyl-3-oxo-5^2,5^3-dihydro-1^1H,5^1H-10-oxa-4-aza-5 (2,1)-benzo[d]imidazola-2 (2,4)-pyridina-1 (4,5)-pyrazola-7 (1,2)-cyclopropanacyclodecaphane-5^6-yl)-2,5-diazabicyclo[2.2.2]octan-2-yl)piperidin-1-yl)-6-methylpyridin-2-yl)piperidine-2,6-dione] | 17.1 | 82.2 | – | –
Cc1cc2cc(n1)-c1cnn(C)c1OCC[C@H]1C[C@@H]1CN1/C(=N/C2=O)Nc2ccc(N3CCN(C[C@@H]4CCN(c5ccc(C6CCC(=O)NC6=O)nc5C)C4)CC3)cc21 (stereo partly drawn) [Example 9, 3-(5-((S)-3-((4-((7^1S,7^2R,E)-1^1,2^6-dimethyl-3-oxo-5^2,5^3-dihydro-1^1H,5^1H-10-oxa-4-aza-5 (2,1)-benzo[d]imidazola-2 (2,4)-pyridina-1 (4,5)-pyrazola-7 (1,2)-cyclopropanacyclodecaphane-5^6-yl)piperazin-1-yl)methyl)pyrrolidin-1-yl)-6-methylpyridin-2-yl)piperidine-2,6-dione] | 85.4 | 74.9 | – | –
Cc1cc2cc(n1)-c1cnn(C)c1OCC[C@H]1C[C@@H]1CN1/C(=N/C2=O)Nc2ccc(N3CCN(C4CN(C5CCN(c6cc(F)c([C@H]7CCC(=O)NC7=O)c(F)c6)CC5)C4)CC3)cc21 [Example 10, (R)-3-(4-(4-(3-(4-((7^1S,7^2R,E)-1^1,2^6-dimethyl-3-oxo-5^2,5^3-dihydro-1^1H,5^1H-10-oxa-4-aza-5 (2,1)-benzo[d]imidazola-2 (2,4)-pyridina-1 (4,5)-pyrazola-7 (1,2)-cyclopropanacyclodecaphane-5^6-yl)piperazin-1-yl)azetidin-1-yl)piperidin-1-yl)-2,6-difluorophenyl)piperidine-2,6-dione] | 6.97 | 91.3 | > 10000 | 31.2
Cc1cc2cc(n1)-c1cnn(C)c1OCC[C@H]1C[C@@H]1CN1/C(=N/C2=O)Nc2ccc(N3CCN([C@H]4CCN(c5cnc(C6CCC(=O)NC6=O)cc5C)C[C@H]4F)CC3)cc21 (stereo partly drawn) [Example 11, 3-(5-((3R,4S)-4-(4-((7^1S,7^2R,E)-1^1,2^6-dimethyl-3-oxo-5^2,5^3-dihydro-1^1H,5^1H-10-oxa-4-aza-5 (2,1)-benzo[d]imidazola-2 (2,4)-pyridina-1 (4,5)-pyrazola-7 (1,2)-cyclopropanacyclodecaphane-5^6-yl)piperazin-1-yl)-3-fluoropiperidin-1-yl)-4-methylpyridin-2-yl)piperidine-2,6-dione] | 7.62 | 71.2 | 1.44 | 51.8
Cc1cc2cc(n1)-c1cnn(C)c1OCC[C@H]1C[C@@H]1CN1/C(=N/C2=O)Nc2ccc(N3CCN([C@@H]4CCN(c5cnc(C6CCC(=O)NC6=O)cc5C)C[C@@H]4F)CC3)cc21 (stereo partly drawn) [Example 12, 3-(5-((3S,4R)-4-(4-((7^1S,7^2R,E)-1^1,2^6-dimethyl-3-oxo-5^2,5^3-dihydro-1^1H,5^1H-10-oxa-4-aza-5 (2,1)-benzo[d]imidazola-2 (2,4)-pyridina-1 (4,5)-pyrazola-7 (1,2)-cyclopropanacyclodecaphane-5^6-yl)piperazin-1-yl)-3-fluoropiperidin-1-yl)-4-methylpyridin-2-yl)piperidine-2,6-dione] | 18.4 | 73.6 | 16 | 54.4
Cc1cc2cc(n1)-c1cnn(C)c1OCC[C@H]1C[C@@H]1CN1/C(=N/C2=O)Nc2ccc(N3CCN(CC4CN(c5ccc6c(c5)C(C)(C)C(=O)N6C5CCC(=O)NC5=O)C4)CC3)cc21 (some centres unmarked) [Example 13, 3-(5-(3-((4-((7^1S,7^2R,E)-1^1,2^6-dimethyl-3-oxo-5^2,5^3-dihydro-1^1H,5^1H-10-oxa-4-aza-5 (2,1)-benzo[d]imidazola-2 (2,4)-pyridina-1 (4,5)-pyrazola-7 (1,2)-cyclopropanacyclodecaphane-5^6-yl)piperazin-1-yl)methyl)azetidin-1-yl)-3,3-dimethyl-2-oxoindolin-1-yl)piperidine-2,6-dione] | 8.09 | 82.2 | – | –
CCc1nc(C2CCC(=O)NC2=O)ccc1N1CCC(N2CCN(c3ccc4c(c3)N3C[C@H]5C[C@@H]5CCOc5c(cnn5C)-c5cc(cc(C)n5)C(=O)/N=C/3N4)CC2)CC1 (some centres unmarked) [Example 14, 3-(5-(4-(4-4((7^1S,7^2R,E)-1^1,2^6-dimethyl-3-oxo-5^2,5^3-dihydro-1^1H,5^1H-10-oxa-4-aza-5 (2,1)-benzo[d]imidazola-2 (2,4)-pyridina-1 (4,5)-pyrazola-7 (1,2)-cyclopropanacyclodecaphane-5^6-yl)piperazin-1-yl)piperidin-1-yl)-6-ethylpyridin-2-yl)piperidine-2,6-dione] | 9.37 | 84.4 | 5.8 | 51.4
